A short description of series [1]: Drug interaction studies: change in pharmacokinetics of elagolix in the presence of co-administered drugs. It counts as in vivo, human. The following applies: for changes in elagolix exposures when co-administered, in words: elagolix 300 mg twice daily, rosuvastatin 20 mg once daily, sertraline 25 mg once daily or fluconazole 200 mg single dose.
The test system of a further series is CYP3A. Briefly: Substrate of / metabolism by CYP3A. It counts as in vitro ADME.
A short description of series [2]: Drug interaction studies: change in pharmacokinetics of co-administered drug in the presence of elagolix. It counts as in vivo, human. Conditions: for changes in exposures when co-administered with elagolix, in words: elagolix 300 mg twice daily. The method, then: Drug interaction studies were performed with elagolix and other drugs likely to be co-administered and with drugs commonly used as probes for pharmacokinetic interactions. Tables 8 and 9 summarize the pharmacokinetic effects when elagolix was co-administered with these drugs.

Series [3] is described as follows: Drug interactions: effects of ORIAHNN on other drugs. Conditions: co-administration of ORIAHNN.
A short description of series [4]: Phase 1 open-label study: coadministration of combined oral contraceptive (EE+LNG) with elagolix sodium, pharmacokinetics, safety and tolerability. It counts as in vivo, human. The following applies: for Ratio (90% CI) AUC, co-administration with elagolix vs medication alone / Ratio (90% CI) Cmax, co-administration with elagolix vs medication alone: ethinyl estradiol 20 mcg/levonorgestrel 0.1 mg single dose, elagolix 200 mg twice daily x 15 days, N 20; for AUC(0-t) / AUC(0-inf) / Cmax: female, human, in vivo, oral. Here is the method: Objective: To evaluate the effect of elagolix on the pharmacokinetics, safety, and tolerability of a single dose of a combined oral contraceptive (COC) containing EE and LNG in healthy premenopausal female subjects. […] [table] […] Diagnosis and Main Criteria for Inclusion: Subjects were premenopausal females, and age was between 18 and 49 years, inclusive. Test Product, Dose/Strength/Concentration, and Mode of Administration: […] EE/LNG 0.02 mg/0.1 mg tablet; All study drugs were administered orally. Duration of Treatment: […] EE/LNG: 0.02 mg/0.1 mg on two separate occasions. Criteria for Evaluation: Pharmacokinetic: Cmax, Tmax, t1/2 and AUC. Safety: Vital signs, physical examinations, laboratory tests, and adverse events. […] The tabulation of the number of subjects with treatment-emergent adverse events also was provided with further breakdowns by severity rating and relationship to study drug.

The nature of series [5]: Drug interactions: effects of ORILISSA on other drugs. Conditions: co-administration of ORILISSA
The mark [6] stands for this setting: COC 20 mcg EE/0.1 mg levonorgestrel, elagolix 200 mg twice daily.
Where [7] appears, read: COC 20 mcg EE/0.1 mg levonorgestrel, elagolix 200 mg twice daily, listed as EE.
The mark [8] stands for this setting: Study Day 1: EE/LNG 0.02 mg/0.1 mg.
Setting [9] is: Study Day 1: EE/LNG 0.02 mg/0.1 mg, read-out: AUCt, Central Value Reference.
The mark [10] stands for this setting: Study Day 18: EE/LNG 0.02 mg/0.1 mg + elagolix 200 mg, read-out: AUCinf, Central Value Test.
[11] abbreviates: Study Day 18: EE/LNG 0.02 mg/0.1 mg + elagolix 200 mg, read-out: AUCt, Central Value Test.
[12] abbreviates: following elagolix 200 mg BID for 14 days.
[13] abbreviates: ethinyl estradiol 35 mcg and triphasic norgestimate 0.18/0.215/0.25 mg once daily, elagolix 150 mg once daily, N 21.
Where [14] appears, read: digoxin 0.5 mg single dose, elagolix 200 mg twice daily x 10 days, N 11.
Setting [15] is: midazolam 2 mg single dose, elagolix 150 mg once daily x 13 days, N 11.
Where [16] appears, read: midazolam 2 mg single dose, elagolix 300 mg twice daily x 11 days, N 20.
Where [17] appears, read: rosuvastatin 20 mg once daily, elagolix 300 mg twice daily x 7 days, N 10.

Like-named read-outs stand apart in the source and are kept apart here.

On to `CO[C@H]1/C=C/O[C@@]2(C)Oc3c(C)c(O)c4c(O)c(c(/C=N/N5CCN(C)CC5)c(O)c4c3C2=O)NC(=O)/C(C)=C\C=C\[C@H](C)[C@H](O)[C@@H](C)[C@@H](O)[C@@H](C)[C@H](OC(C)=O)[C@@H]1C` [Rifampin], for which the “effect of concomitant use on plasma concentrations of elagolix, in words” value in series [1] (concomitant use of rifampin) is “increased”.

Turning to `C[C@]12CC[C@@H]3c4ccc(O)cc4CC[C@H]3[C@@H]1CC[C@@H]2O` [estradiol], the “metabolism by CYP3A” value in the series with CYP3A was “metabolized partially by CYP3A”.

With `OC(Cn1cncn1)(Cn1cncn1)c1ccc(F)cc1F` [fluconazole], the “changes in exposures when co-administered with elagolix, in words” value in series [2] is “No clinically significant changes”. Moreover, in series [1], the “changes in elagolix exposures when co-administered, in words” value (shortened to “changes in elagolix exposures”) is reported as “No clinically significant changes”.

`C#C[C@]1(O)CC[C@H]2[C@@H]3CCc4cc(O)ccc4[C@H]3CC[C@@]21C` [ethinyl estradiol, 17α-Ethynylestra-1,3,5(10)-triene-3,17β-diol]: in series [3], the “Effect on Plasma Exposure of Concomitant Drug (direction of change in AUC)” value (“Effect … (direction of change in AUC)” for short) is “↑ethinyl”. Moreover, in series [4] (setting [6]), the “AUCinf ratio, co-administered in the presence of elagolix vs alone” value is recorded as 2.18 and the “Cmax ratio, co-administered in the presence of elagolix vs alone” value is reported as 1.36. In addition, the “increase in plasma EE concentration compared to COC alone” value in series [4] (COC 20 mcg EE/0.1 mg levonorgestrel, elagolix 200 mg twice daily for 14 days) came out at 2.2 fold. In addition, in series [4] (setting [7]), the “AUCinf ratio, co-administered in the presence of elagolix vs alone” value is given as “about 2.18” and the “Cmax ratio, co-administered in the presence of elagolix vs alone” value was “about 1.36”. In addition, in series [4] (setting [8]), the “AUCinf, Central Value Reference” value turned out to be 0.494 ng·h/mL and the “CCmax, Central Value Reference” value is listed as 49.0 pg/mL. In series [4] (Study Day 18: EE/LNG 0.02 mg/0.1 mg + elagolix 200 mg), the “CCmax, Central Value Test” value is 66.4 pg/mL. In series [4], the “Ratio (90% CI) AUC, co-administration with elagolix vs medication alone” value (from here on “Ratio (90% CI) AUC, co-administration”) amounted to 2.18 and the “Ratio (90% CI) Cmax, co-administration with elagolix vs medication alone” value (“Ratio (90% CI) Cmax, co-administration” for short) is 1.36. For the same molecule, the AUC(0-t) in series [4] (setting [9]) stood at 0.437 ng·h/mL. Besides, the AUC(0-inf) in series [4] (setting [10]) was 1.08 ng·h/mL. The AUC(0-t) in series [4] (setting [11]) is 0.941 ng·h/mL. In addition, in series [4] (setting [12]), the “increase in AUCinf” value is recorded as 118% and the “increase in Cmax” value is given as 36%. Also, in series [2] (setting [13]), the “Ratio (90% CI) AUC, co-administration” value is reported as 1.30 and the “Ratio (90% CI) Cmax, co-administration” value is on record as 1.15. In addition, the “Effect … (direction of change in AUC)” value in series [5] was “↑ethinyl”.

Take `CN[C@H]1CC[C@@H](c2ccc(Cl)c(Cl)c2)c2ccccc21` [sertraline]: the “changes in exposures when co-administered with elagolix, in words” value in series [2] is listed as “No clinically significant changes”. Also, the “changes in elagolix exposures” value in series [1] is “No clinically significant changes”.

For `C[C@H]1O[C@@H](O[C@H]2[C@@H](O)C[C@H](O[C@H]3[C@@H](O)C[C@H](O[C@H]4CC[C@@]5(C)[C@H](CC[C@@H]6[C@@H]5C[C@@H](O)[C@]5(C)[C@@H](C7=CC(=O)OC7)CC[C@]65O)C4)O[C@@H]3C)O[C@@H]2C)C[C@H](O)[C@@H]1O` [digoxin], the “Effect … (direction of change in AUC)” value in series [3] is given as “↑ digoxin”. In addition, in series [2] (setting [14]), the “Ratio (90% CI) AUC, co-administration” value is 1.26 and the “Ratio (90% CI) Cmax, co-administration” value was determined as 1.71. In addition, the “Effect … (direction of change in AUC)” value in series [5] is recorded as “↑ digoxin”.

In the case of `C#C[C@]1(OC(C)=O)CC[C@H]2[C@@H]3CCC4=CC(=O)CC[C@@H]4[C@H]3CC[C@@]21C` [norethindrone acetate], in the series with CYP3A, the “metabolism by CYP3A” value is given as “metabolized partially by CYP3A”.

Take `Cc1ncc2n1-c1ccc(Cl)cc1C(c1ccccc1F)=NC2` [midazolam]: the “Effect … (direction of change in AUC)” value in series [3] and in series [5] was “↓ midazolam” throughout. For the same molecule, the “Ratio (90% CI) AUC, co-administration” value in series [2] (setting [15]) is recorded as 0.65; in series [2] (setting [16]), 0.46. Moreover, the results for the “Ratio (90% CI) Cmax, co-administration” value in series [2] (setting [15]) and in series [2] (setting [16]) were 0.81 and 0.56, respectively.

A word on the Cmax: it is the highest concentration seen after dosing. As to `C#C[C@]1(O)CC[C@H]2[C@@H]3CCC4=CC(=O)CC[C@@H]4[C@H]3CC[C@@]21CC` [levonorgestrel, 17α-Ethynyl-18-methylestr-4-en-17β-ol-3-one], the “Effect … (direction of change in AUC)” value was “↓levonorgestrel” in series [3] and “↓ levonor-” in series [5]. Besides, the “decrease in plasma concentrations of levonorgestrel” value in series [4] (COC containing 0.1 mg levonorgestrel, elagolix 200 mg twice daily) amounted to 27%. In addition, the “Ratio (90% CI) AUC, co-administration” value in series [4] is recorded as 0.73. For the same molecule, the “Ratio (90% CI) Cmax, co-administration” value in series [4] turned out to be 0.97. Also, the AUC(0-inf) in series [4] (Study Day 1: EE/LNG 0.02 mg/0.1 mg, read-out: AUCinf, Central Value Reference) turned out to be 42.1 ng·h/mL; in series [4] (setting [10]) it was 30.5 ng·h/mL. In addition, the results for the AUC(0-t) in series [4] (setting [9]) and in series [4] (setting [11]) were 31.1 ng·h/mL and 25 ng·h/mL, respectively. In addition, the Cmax in series [4] (Study Day 1: EE/LNG 0.02 mg/0.1 mg, read-out: Cmax, Central Value Reference) stood at 2.62 ng/mL; in series [4] (Study Day 18: EE/LNG 0.02 mg/0.1 mg + elagolix 200 mg, read-out: Cmax, Central Value Test) it was 2.54 ng/mL. In addition, the “decrease in AUCinf” value in series [4] (setting [12]) is listed as 27%. Besides, the “decrease in Cmax” value in series [4] (setting [12]) turned out to be 3%.

As to `CC(C)c1nc(N(C)S(C)(=O)=O)nc(-c2ccc(F)cc2)c1/C=C/[C@@H](O)C[C@@H](O)CC(=O)O` [rosuvastatin], the “Effect … (direction of change in AUC)” value in series [3] is listed as “↓ rosuvastatin”. In series [2] (setting [17]), the “Ratio (90% CI) AUC, co-administration” value is listed as 0.60 and the “Ratio (90% CI) Cmax, co-administration” value was 0.99. Moreover, in series [5], the “Effect … (direction of change in AUC)” value was “↓ rosuvastatin”. Besides, the “changes in elagolix exposures” value in series [1] is “No clinically significant changes”.

(Values after patent US20220257597A1, “Methods of Administering Elagolix” (AbbVie Inc., priority 2021, published 2022).)
